Measurements: patent US10251395B2, “Substituted furano-/thienocycloalkylamino-2-pyrimidine derivatives and use thereof for controlling undesired plant growth” (Bayer CropScience Aktiengesellschaft, priority 2015, dated 2019)

What was measured:
Type in all cases: in vivo
Echinochloa crus-galli [1] = assay: Pre-emergence herbicidal effect; conditions: scored visually after 3 weeks
Procedure, shortened: (§1)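 Pre-emergence soil-surface application of compound as WP or EC in water (600 to 800 L/ha, 0.2% wetting agent) to freshly sown, soil-covered seeds in sandy loam. After 3 weeks under greenhouse conditions, percent activity rated by eye versus untreated plants, from 0% (no effect) to 100% (death).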

Veronica persica [2] = assay: Pre-emergence herbicidal effect; conditions: scored visually after 3 weeks
Procedure, shortened: as §1

Amaranthus retroflexus [3] = assay: Pre-emergence herbicidal effect; conditions: scored visually after 3 weeks
Procedure, shortened: as §1

Polygonum convolvulus [4] = assay: Pre-emergence herbicidal effect; conditions: scored visually after 3 weeks
Procedure, shortened: as §1

Stellaria media [5] = assay: Pre-emergence herbicidal effect; conditions: scored visually after 3 weeks
Procedure, shortened: as §1

Setaria viridis [6] = assay: Pre-emergence herbicidal effect; conditions: scored visually after 3 weeks
Procedure, shortened: as §1

Matricaria inodora [7] = assay: Pre-emergence herbicidal effect; conditions: scored visually after 3 weeks
Procedure, shortened: as §1

Viola tricolor [8] = assay: Pre-emergence herbicidal effect; conditions: scored visually after 3 weeks
Procedure, shortened: as §1

Abutilon theophrasti [9] = assay: Pre-emergence herbicidal effect; conditions: scored visually after 3 weeks
Procedure, shortened: as §1

Echinochloa crus-galli [10] = assay: Post-emergence herbicidal effect; conditions: assessed visually after about 3 weeks vs untreated controls
Procedure, shortened: (§2)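 Herbicidal effect was rated visually roughly 3 weeks after foliar treatment, as % versus untreated plants, with 0% meaning the same as controls and 100% meaning dead. Plants were treated at the one-leaf stage in the greenhouse with aqueous WP or EC sprays at 600–800 L/ha containing 0.2% wetter.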

Veronica persica [11] = assay: Post-emergence herbicidal effect; conditions: assessed visually after about 3 weeks vs untreated controls
Procedure, shortened: as §2

Amaranthus retroflexus [12] = assay: Post-emergence herbicidal effect; conditions: assessed visually after about 3 weeks vs untreated controls
Procedure, shortened: as §2

Alopecurus myosuroides [13] = assay: Post-emergence herbicidal effect; conditions: 320 g/ha, assessed visually after about 3 weeks vs untreated controls
Procedure, shortened: as §2

Stellaria media [14] = assay: Post-emergence herbicidal effect; conditions: 320 g/ha, assessed visually after about 3 weeks vs untreated controls
Procedure, shortened: as §2

Matricaria inodora [15] = assay: Post-emergence herbicidal effect; conditions: 320 g/ha, assessed visually after about 3 weeks vs untreated controls
Procedure, shortened: as §2

Viola tricolor [16] = assay: Post-emergence herbicidal effect; conditions: assessed visually after about 3 weeks vs untreated controls
Procedure, shortened: as §2

Lolium multiflorum [17] = assay: Post-emergence herbicidal effect; conditions: 320 g/ha, assessed visually after about 3 weeks vs untreated controls
Procedure, shortened: as §2

Abutilon theophrasti [18] = assay: Post-emergence herbicidal effect; conditions: 320 g/ha, assessed visually after about 3 weeks vs untreated controls
Procedure, shortened: as §2

Alopecurus myosuroides [19] = assay: Pre-emergence herbicidal effect; conditions: scored visually after 3 weeks
Procedure, shortened: as §1

Lolium multiflorum [20] = assay: Pre-emergence herbicidal effect; conditions: Dosage 320 g/ha, scored visually after 3 weeks
Procedure, shortened: as §1

Polygonum convolvulus [21] = assay: Post-emergence herbicidal effect; conditions: 320 g/ha, assessed visually after about 3 weeks vs untreated controls
Procedure, shortened: as §2

Ipomoea purpurea = assay: Post-emergence herbicidal effect; conditions: 320 g/ha, assessed visually after about 3 weeks vs untreated controls
Procedure, shortened: as §2

Setaria viridis [22] = assay: Post-emergence herbicidal effect; conditions: 320 g/ha, assessed visually after about 3 weeks vs untreated controls
Procedure, shortened: as §2

Compound	ECHCG pre-emergence efficacy (herbicidal activity) (Echinochloa crus-galli [1]; Dosage 80 g/ha) [%]	ECHCG pre-emergence efficacy (herbicidal activity) (Echinochloa crus-galli [1]; Dosage 320 g/ha) [%]	VERPE pre-emergence efficacy (herbicidal activity) (Veronica persica [2]; Dosage 80 g/ha) [%]	VERPE pre-emergence efficacy (herbicidal activity) (Veronica persica [2]; Dosage 320 g/ha) [%]	AMARE pre-emergence efficacy (herbicidal activity) (Amaranthus retroflexus [3]; Dosage 80 g/ha) [%]	AMARE pre-emergence efficacy (herbicidal activity) (Amaranthus retroflexus [3]; Dosage 320 g/ha) [%]	POLCO pre-emergence efficacy (herbicidal activity) (Polygonum convolvulus [4]; Dosage 80 g/ha) [%]	POLCO pre-emergence efficacy (herbicidal activity) (Polygonum convolvulus [4]; Dosage 320 g/ha) [%]	STEME pre-emergence efficacy (herbicidal activity) (Stellaria media [5]; Dosage 80 g/ha) [%]	STEME pre-emergence efficacy (herbicidal activity) (Stellaria media [5]; Dosage 320 g/ha) [%]	SETVI pre-emergence efficacy (herbicidal activity) (Setaria viridis [6]; Dosage 80 g/ha) [%]	SETVI pre-emergence efficacy (herbicidal activity) (Setaria viridis [6]; Dosage 320 g/ha) [%]	MATIN pre-emergence efficacy (herbicidal activity) (Matricaria inodora [7]; Dosage 80 g/ha) [%]	MATIN pre-emergence efficacy (herbicidal activity) (Matricaria inodora [7]; Dosage 320 g/ha) [%]	VIOTR pre-emergence efficacy (herbicidal activity) (Viola tricolor [8]; Dosage 80 g/ha) [%]	VIOTR pre-emergence efficacy (herbicidal activity) (Viola tricolor [8]; Dosage 320 g/ha) [%]	ABUTH pre-emergence efficacy (herbicidal activity) (Abutilon theophrasti [9]; Dosage 320 g/ha) [%]	post-emergence efficacy ECHCG (Echinochloa crus-galli [10]; 320 g/ha) [%]	post-emergence efficacy ALOMY (Alopecurus myosuroides [13]) [%]	post-emergence efficacy VIOTR (Viola tricolor [16]; 320 g/ha) [%]	further results
Cc1cc2c(s1)CCCC2Nc1ncc2c(n1)CCCC2=O (racemic) [compound 9]	100	100	100	100	100	100	100	100	100	100	80	100	100	100	90	100	100	100	80	90	ABUTH pre-emergence efficacy (herbicidal activity) (Abutilon theophrasti [9]; Dosage 80 g/ha): 100%; post-emergence efficacy ECHCG (Echinochloa crus-galli [10]; 80 g/ha): 80%; post-emergence efficacy VERPE (Veronica persica [11]; 80 g/ha): 80%; post-emergence efficacy VERPE (Veronica persica [11]; 320 g/ha): 90%; post-emergence efficacy AMARE (Amaranthus retroflexus [12]; 80 g/ha): 80%; post-emergence efficacy AMARE (Amaranthus retroflexus [12]; 320 g/ha): 90%; post-emergence efficacy STEME (Stellaria media [14]): 90%; post-emergence efficacy MATIN (Matricaria inodora [15]): 80%; post-emergence efficacy VIOTR (Viola tricolor [16]; 80 g/ha): 80%; post-emergence efficacy LOLMU (Lolium multiflorum [17]): 80%; post-emergence efficacy ABUTH (Abutilon theophrasti [18]): 80%
Cc1cc2c(o1)CCCC2Nc1ncc(C(F)(F)F)c(N)n1 (racemic) [compound 28]			100	100	100	100		100	100	100		100	90	100	90	100	80		100	90	ALOMY pre-emergence efficacy (herbicidal activity) (Alopecurus myosuroides [19]; Dosage 320 g/ha): 90%; LOLMU pre-emergence efficacy (herbicidal activity) (Lolium multiflorum [20]): 100%
Cc1cc2c(s1)CCC[C@H]2Nc1ncc2c(n1)CCCS2(=O)=O [compound 44]	100	100	100	100	100	100	100	100	100	100	100	100	100	100			100	100	90	80	ALOMY pre-emergence efficacy (herbicidal activity) (Alopecurus myosuroides [19]; Dosage 80 g/ha): 80%; ALOMY pre-emergence efficacy (herbicidal activity) (Alopecurus myosuroides [19]; Dosage 320 g/ha): 100%; LOLMU pre-emergence efficacy (herbicidal activity) (Lolium multiflorum [20]): 100%; post-emergence efficacy VERPE (Veronica persica [11]; 320 g/ha): 100%; post-emergence efficacy AMARE (Amaranthus retroflexus [12]; 320 g/ha): 100%; post-emergence efficacy POLCO (Polygonum convolvulus [21]): 80%; post-emergence efficacy PHBPU (Ipomoea purpurea): 100%; post-emergence efficacy STEME (Stellaria media [14]): 100%; post-emergence efficacy SETVI (Setaria viridis [22]): 100%; post-emergence efficacy ABUTH (Abutilon theophrasti [18]): 90%
